From patent US20250228855A1, “PYRAZINAMIDE COMPOUNDS” (The General Hospital Corporation, priority 2022, published 2025) come the findings set out here.

For one assay, the target named is PfcProRS (Plasmodium falciparum, UniProt Q8I5R7). In words: TR-FRET ligand displacement assay with tracer MAT379, PfcProRS. It counts as binding. (In general: In TR-FRET formats the signal depends on donor and acceptor labels being close together.)
The test system of assay [1] is halofuginone-induced (HFG-induced) P. falciparum. In words: P. falciparum asexual blood stage growth assay, halofuginone-induced parasites. Conditions: Plasmodium falciparum.
Experimental: (§1) Asexual blood stage (ABS) P. falciparum parasites were treated with test compounds at varying concentrations for 72 h, followed by quantification of parasite growth by SYBR Green staining.
(§2) P. falciparum Asexual Blood Stage Growth Assay: This assay was performed as previously described.
Another assay deals with P. falciparum Dd2-2D4. Nature of the assay: P. falciparum asexual blood stage growth assay, wild-type Dd2-2D4.
The target of another assay is T1, HsProRS (Homo sapiens, UniProt P07814).
T1 sequence (P07814 1007-1512 limits assumed): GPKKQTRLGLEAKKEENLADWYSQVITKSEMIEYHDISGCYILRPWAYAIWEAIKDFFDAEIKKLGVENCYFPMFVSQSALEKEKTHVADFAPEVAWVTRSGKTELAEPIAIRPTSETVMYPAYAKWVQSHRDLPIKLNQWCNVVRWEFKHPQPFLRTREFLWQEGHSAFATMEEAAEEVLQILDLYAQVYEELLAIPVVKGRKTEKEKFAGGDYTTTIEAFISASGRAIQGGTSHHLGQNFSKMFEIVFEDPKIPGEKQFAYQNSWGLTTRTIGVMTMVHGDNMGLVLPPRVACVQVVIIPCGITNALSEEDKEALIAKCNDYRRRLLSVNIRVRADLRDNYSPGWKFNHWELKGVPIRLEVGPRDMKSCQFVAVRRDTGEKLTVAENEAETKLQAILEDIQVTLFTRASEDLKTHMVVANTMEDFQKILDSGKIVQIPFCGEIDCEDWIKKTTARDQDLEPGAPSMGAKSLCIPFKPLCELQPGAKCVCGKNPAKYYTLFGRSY
In words: TR-FRET ligand displacement assay with tracer MAT379, HsProRS. It counts as binding.

Where [2] appears, read: PfcProRS (KD [nM]) +proline, 100 μM Pro.
Where [3] appears, read: no proline, no ATP, read-out: PfcProRS (KD [nM]) −.
[4] abbreviates: DD2, 72 h, read-out: Dd2 (EC50 [nM]) Halofuginone-induced.
The mark [5] stands for this setting: read-out: EC50 in halofuginone-induced parasites.
The mark [6] stands for this setting: no proline, no ATP, read-out: HsProRS (KD [nM]) −.
The mark [7] stands for this setting: read-out: HsProRS (KD [nM]) +proline, 100 μM Pro.
[8] abbreviates: Plasmodium falciparum, DD2, 72 h, read-out: Dd2 (EC50 [nM]) wt.
[9] abbreviates: Plasmodium falciparum, DD2, read-out: EC50 against Dd2-2D4 wildtype parasites.
The mark [10] stands for this setting: absence of proline, read-out: KD for PfcProRS.

Structures can show the parent of a compound that is named as a salt. Where two headings read alike, the source gives them in different places. Marks after values point to notes of the source that are not given here.

Chain of PfcProRS (Q8I5R7 whole entry): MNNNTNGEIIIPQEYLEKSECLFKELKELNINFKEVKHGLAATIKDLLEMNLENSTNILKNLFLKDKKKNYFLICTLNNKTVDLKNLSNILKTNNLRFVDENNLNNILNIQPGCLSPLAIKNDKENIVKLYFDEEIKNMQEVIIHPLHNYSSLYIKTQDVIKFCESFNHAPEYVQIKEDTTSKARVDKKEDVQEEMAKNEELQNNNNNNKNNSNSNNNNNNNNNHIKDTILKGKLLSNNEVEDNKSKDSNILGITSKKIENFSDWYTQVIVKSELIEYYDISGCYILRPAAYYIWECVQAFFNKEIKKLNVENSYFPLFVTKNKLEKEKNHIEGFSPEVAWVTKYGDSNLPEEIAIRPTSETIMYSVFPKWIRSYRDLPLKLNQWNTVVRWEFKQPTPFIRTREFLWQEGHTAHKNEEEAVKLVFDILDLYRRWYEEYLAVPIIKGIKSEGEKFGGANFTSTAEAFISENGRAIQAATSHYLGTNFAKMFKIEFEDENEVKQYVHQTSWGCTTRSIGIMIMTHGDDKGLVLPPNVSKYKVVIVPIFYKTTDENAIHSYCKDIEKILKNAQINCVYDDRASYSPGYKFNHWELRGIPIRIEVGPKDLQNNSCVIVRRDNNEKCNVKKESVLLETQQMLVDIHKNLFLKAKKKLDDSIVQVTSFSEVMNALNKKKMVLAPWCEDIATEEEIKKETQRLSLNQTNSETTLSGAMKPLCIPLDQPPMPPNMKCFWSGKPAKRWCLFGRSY
Experimental for P. falciparum Dd2-2D4: as §1, §2

`CC(C)(C)OC(=O)N1CCC[C@H](OC(=O)NS(=O)(=O)N2CCN(C(=O)Nc3nccnc3C(=O)NC3Cc4ccccc4C3)CC2)[C@H]1CC(=O)Cn1cnc2cc(Br)c(Cl)cc2c1=O` (relative stereo) [Compound 37, tert-butyl trans-2-(3-(7-bromo-6-chloro-4-oxoquinazolin-3(4H)-yl)-2-oxopropyl)-3-((((4-((3-((2,3-dihydro-1H-inden-2-yl)carbamoyl)pyrazin-2-yl)carbamoyl)piperazin-1-yl)sulfonyl)carbamoyl)oxy)piperidine-1-carboxylate]: the Kd at PfcProRS (setting [2]) was determined as 175 nM; on PfcProRS (setting [3]) it was 246 nM. The EC50 in assay [1] (setting [4]) turned out to be 7150 nM. In the assay with P. falciparum Dd2-2D4 (10 μM, compound had <50% growth inhibition), the “percent growth at 10 μM (Dd2 wt)” value is on record as 59% †.
Regarding `O=C(NC1Cc2ccccc2C1)c1nccnc1NC(=O)C1CCCCC1` [Compound 2, 3-(cyclohexanecarboxamido)-N-(2,3-dihydro-1H-inden-2-yl)pyrazine-2-carboxamide, reference compound], the Kd stood at 291 nM at PfcProRS (PfcProRS (KD [nM]) +ATP, 500 μM ATP); 7.17 nM on PfcProRS (setting [2]); 437 nM on PfcProRS (setting [3]); 371 nM at HsProRS (setting [6]); 954 nM on HsProRS (read-out: HsProRS (KD [nM]) +ATP, +ATP); 2.16 nM at HsProRS (setting [7]). Besides, the 50% effective concentration (EC50) amounted to 1250 nM in assay [1] (setting [4]), 1250 nM in assay [1] (setting [5]), 595 nM in the assay with P. falciparum Dd2-2D4 (setting [8]) and 595 nM in the assay with P. falciparum Dd2-2D4 (setting [9]).
`CC1(C(=O)Nc2nccnc2C(=O)NC2Cc3ccccc3C2)CCCCC1` [Compound 4, N-(2,3-dihydro-1H-inden-2-yl)-3-(1-methylcyclohexane-1-carboxamido)pyrazine-2-carboxamide]: the Kd at PfcProRS (setting [2]) is 3.42 nM; on PfcProRS (setting [3]), 275 nM; on HsProRS (setting [6]) it was 221 nM; on HsProRS (setting [7]) it was 2.55 nM. The EC50 in assay [1] (setting [4]) was found to be 540 nM; in assay [1] (setting [5]) it was 540 nM; with P. falciparum Dd2-2D4 (setting [8]) it was 180 nM; with P. falciparum Dd2-2D4 (setting [9]) it was 180 nM.
Consider `CC(C)(C)OC(=O)N[C@H]1CC[C@@H](C(=O)Nc2nccnc2C(=O)NC2Cc3ccccc3C2)CC1` [Compound 6, tert-butyl ((1s,4s)-4-((3-((2,3-dihydro-1H-inden-2-yl)carbamoyl)pyrazin-2-yl)carbamoyl)cyclohexyl)carbamate], for which the Kd on PfcProRS (setting [2]) amounted to 26.3 nM; on PfcProRS (setting [3]), 31.5 nM; at HsProRS (setting [6]) it was 56.8 nM; on HsProRS (setting [7]), 82.7 nM. Moreover, the values for the EC50 (in assay [1] (setting [4]); in the assay with P. falciparum Dd2-2D4 (setting [8])) were 7930 nM and 508 nM, respectively.
Take `CC(C)(C)OC(=O)NCC1CCN(C(=O)Nc2nccnc2C(=O)NC2Cc3ccccc3C2)CC1` [Compound 9, tert-butyl ((1-((3-((2,3-dihydro-1H-inden-2-yl)carbamoyl)pyrazin-2-yl)carbamoyl)piperidin-4-yl)methyl)carbamate]: the Kd was 353 nM on PfcProRS (setting [2]), 382 nM on PfcProRS (setting [3]), more than 5090 nM on HsProRS and 2510 nM at HsProRS (setting [6]). Also, the EC50 in assay [1] (setting [4]) was 7530 nM; in the assay on P. falciparum Dd2-2D4 (setting [8]), 6570 nM.
For `O=C(NC1Cc2ccccc2C1)c1nccnc1NC(=O)N1CCC(CCO)CC1` [Compound 12, N-(2,3-dihydro-1H-inden-2-yl)-3-(4-(2-hydroxyethyl)piperidine-1-carboxamido)pyrazine-2-carboxamide], the Kd turned out to be 339 nM at PfcProRS (setting [2]), 515 nM at PfcProRS (setting [3]), 687 nM on HsProRS (setting [6]) and 150 nM on HsProRS (setting [7]). Further, the results for the 50% effective concentration (EC50) (in assay [1] (setting [4]); in the assay with P. falciparum Dd2-2D4 (setting [8])) were 6350 nM and 153 nM, respectively.
For `O=C(NC1Cc2ccccc2C1)c1nccnc1NC(=O)C1(O)CCCCC1` [Compound 15, N-(2,3-dihydro-1H-inden-2-yl)-3-(1-hydroxycyclohexane-1-carboxamido)pyrazine-2-carboxamide], the EC50 amounted to 3510 nM in assay [1] (setting [4]) and 1500 nM in the assay with P. falciparum Dd2-2D4 (setting [8]). Moreover, the Kd at HsProRS (setting [6]) stood at 2700 nM; at HsProRS (setting [7]), 21.8 nM.
As to `C[C@@H]1CCC[C@H](C)N1C(=O)Nc1nccnc1C(=O)NC1Cc2ccccc2C1` [Compound 19, N-(2,3-dihydro-1H-inden-2-yl)-3-(cis-2,6-dimethylpiperidine-1-carboxamido)pyrazine-2-carboxamide], the equilibrium dissociation constant (Kd) was 1180 nM at PfcProRS (setting [2]), more than 2860 nM at PfcProRS (setting [3]), more than 8720 nM at HsProRS (setting [6]) and 1320 nM on HsProRS (setting [7]). The results for the half-maximal effective concentration (EC50) (in assay [1] (setting [4]); in the assay on P. falciparum Dd2-2D4 (setting [8])) were 8590 nM and more than 10000 nM, respectively.
On to `O=C(NC1Cc2ccccc2C1)c1nccnc1NC(=O)C1CCC1` [Compound 20, 3-(cyclobutanecarboxamido)-N-(2,3-dihydro-1H-inden-2-yl)pyrazine-2-carboxamide], for which the Kd at PfcProRS (setting [2]) is 100 nM; at PfcProRS (setting [3]), 1260 nM; at HsProRS (setting [6]), 738 nM; at HsProRS (setting [7]), 13.2 nM. In addition, the EC50 in assay [1] (setting [4]) worked out at 6010 nM; in the assay with P. falciparum Dd2-2D4 (setting [8]) it was 3740 nM.
Consider `CC(C)(C)OC(=O)NCCCCCC(=O)NC1CCN(C(=O)Nc2nccnc2C(=O)NC2Cc3ccccc3C2)CC1` [Compound 41, tert-butyl (6-((1-((3-((2,3-dihydro-1H-inden-2-yl)carbamoyl)pyrazin-2-yl)carbamoyl)piperidin-4-yl)amino)-6-oxohexyl)carbamate], for which the Kd at PfcProRS (setting [2]) stood at 182 nM; at PfcProRS (setting [3]), 227 nM; at HsProRS (setting [6]), 139 nM; at HsProRS (setting [7]), 561 nM. Besides, the EC50 in assay [1] (setting [4]) was 6910 nM; in the assay on P. falciparum Dd2-2D4 (setting [8]), 2110 nM.
In the case of `NCCCCCC(=O)NC1CCN(C(=O)Nc2nccnc2C(=O)NC2Cc3ccccc3C2)CC1` [Compound 42, 3-(4-(6-aminohexanamido)piperidine-1-carboxamido)-N-(2,3-dihydro-1H-inden-2-yl)pyrazine-2-carboxamide dihydrochloride], the Kd is 295 nM on PfcProRS (setting [2]), 433 nM on PfcProRS (setting [3]), 780 nM at HsProRS (setting [7]) and 674 nM at HsProRS (read-out: HsProRS (KD [nM]) −). Moreover, the EC50 is 9080 nM in assay [1] (setting [4]) and 3120 nM with P. falciparum Dd2-2D4 (setting [8]).
For `O=C(NC1CCCCC1)c1nccnc1NC(=O)C1Cc2ccccc2C1` [Compound 49, N-cyclohexyl-3-(2,3-dihydro-1H-indene-2-carboxamido)pyrazine-2-carboxamide], the Kd is more than 2180 nM on PfcProRS (setting [2]), more than 2860 nM on PfcProRS (setting [3]), more than 5090 nM at HsProRS and more than 8720 nM on HsProRS (setting [6]). Further, the EC50 in the assay on P. falciparum Dd2-2D4 (setting [8]) was 6800 nM.
For `O=C(NC1Cc2ccccc2C1)c1nccnc1NS(=O)(=O)C1CCCCC1` [Compound 50, 3-(cyclohexanesulfonamido)-N-(2,3-dihydro-1H-inden-2-yl)pyrazine-2-carboxamide], the Kd at PfcProRS (setting [2]) is more than 2180 nM; at PfcProRS (setting [3]), more than 2860 nM; at HsProRS, more than 5090 nM; at HsProRS (setting [6]), more than 8720 nM. Moreover, in the assay with P. falciparum Dd2-2D4 (setting [8]), the EC50 is 13000 nM.
With `O=C(NS(=O)(=O)N1CCN(C(=O)Nc2nccnc2C(=O)NC2Cc3ccccc3C2)CC1)O[C@H]1CCCNC1` [MAT445, (S)-piperidin-3-yl ((4-((3-((2,3-dihydro-1H-inden-2-yl)carbamoyl)pyrazin-2-yl)carbamoyl)piperazin-1-yl)sulfonyl)carbamate], the Kd at PfcProRS (setting [10]) worked out at 1110 nM. Besides, the EC50 was 7620 nM in assay [1] (setting [4]), more than 10000 nM in assay [1] (setting [5]), 1160 nM in the assay with P. falciparum Dd2-2D4 (setting [8]) and 1160 nM with P. falciparum Dd2-2D4 (setting [9]).
With `O=C(NS(=O)(=O)N1CCN(C(=O)Nc2nccnc2C(=O)NC2Cc3ccccc3C2)CC1)O[C@@H]1CCCNC1` [MAT447, (R)-piperidin-3-yl ((4-((3-((2,3-dihydro-1H-inden-2-yl)carbamoyl)pyrazin-2-yl)carbamoyl)piperazin-1-yl)sulfonyl)carbamate], the Kd on PfcProRS (setting [10]) is 2460 nM. Moreover, the concentration giving a half-maximal response (EC50) in assay [1] (setting [4]) was 6990 nM; in assay [1] (setting [5]), more than 10000 nM; in the assay on P. falciparum Dd2-2D4 (setting [8]), 6250 nM; in the assay with P. falciparum Dd2-2D4 (setting [9]) it was 6250 nM.
For `O=C(NS(=O)(=O)NC1CCN(C(=O)Nc2nccnc2C(=O)NC2Cc3ccccc3C2)CC1)OCCn1cnc2ccccc2c1=O` [MAT513, 2-(4-oxoquinazolin-3(4H)-yl)ethyl (N-(1-((3-((2,3-dihydro-1H-inden-2-yl)carbamoyl)pyrazin-2-yl)carbamoyl)piperidin-4-yl)sulfamoyl)carbamate], the Kd came to 20.3 nM on PfcProRS (setting [10]) and 157 nM at HsProRS (absence of proline, read-out: KD for HsProRS). Further, the EC50 in the assay with P. falciparum Dd2-2D4 (setting [8]) stood at 4830 nM. Besides, in the assay on P. falciparum Dd2-2D4 (Plasmodium falciparum, DD2, read-out: IC50 for Dd2-2D4), the IC50 stood at 4830 nM.
For `Nc1ncnc2c1ncn2[C@@H]1O[C@H](COS(=O)(=O)NC(=O)[C@@H]2CCCN2)[C@@H](O)[C@H]1O` [ProSA (25), 5′-O—[N-(L-Prolyl)-sulfamoyl]adenosine, reference compound], the EC50 came out at 137 nM in assay [1] (setting [4]) and 151 nM with P. falciparum Dd2-2D4 (setting [8]).

A word on the Kd: it is the equilibrium constant for the complex coming apart. Usually EC50 stands for the midpoint of the concentration-response curve. What is called IC50 is the concentration that inhibits the measured activity by half.
